Data set [1] deals with Cynomolgus monkey. Nature of the data set: Cardiotoxicity in telemetered cynomolgus monkey assessed as increase in heart rate at 1.5 to 6 mg/kg, sc measured after 1 to 4 hrs by telemetry method. The format is toxicity, organism-based, Macaca fascicularis. Also noted: route subcutaneous. To be noted: in vivo.
Data set [2] deals with T1, Muscarinic acetylcholine receptor M5 (Homo sapiens) (UniProt P08912).
T1 sequence (whole entry): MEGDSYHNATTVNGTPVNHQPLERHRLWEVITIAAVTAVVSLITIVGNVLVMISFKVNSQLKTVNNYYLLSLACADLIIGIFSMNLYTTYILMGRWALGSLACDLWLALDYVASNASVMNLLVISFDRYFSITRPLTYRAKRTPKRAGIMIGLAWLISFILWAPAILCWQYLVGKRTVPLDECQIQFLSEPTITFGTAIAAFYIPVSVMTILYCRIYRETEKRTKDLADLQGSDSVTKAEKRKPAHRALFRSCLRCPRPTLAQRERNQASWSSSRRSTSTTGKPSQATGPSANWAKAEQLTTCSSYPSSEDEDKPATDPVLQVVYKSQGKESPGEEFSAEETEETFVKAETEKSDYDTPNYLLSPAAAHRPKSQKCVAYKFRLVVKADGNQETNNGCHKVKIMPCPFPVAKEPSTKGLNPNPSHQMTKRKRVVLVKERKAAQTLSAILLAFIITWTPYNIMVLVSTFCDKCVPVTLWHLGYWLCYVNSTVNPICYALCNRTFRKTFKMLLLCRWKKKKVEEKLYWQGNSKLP
Nature of the data set: Partial agonist activity at human M5 receptor in CHO cells assessed as calcium mobilization at 3 uM after 60 mins by FLIPR assay. It counts as functional, cell-based. Background: Calcium assays in cells follow changes in intracellular calcium, usually with a dye or a luminescent sensor.

Data set [3] deals with Muscarinic acetylcholine receptor M3 (Homo sapiens) (UniProt P20309). Put plainly: Partial agonist activity at human M3 receptor in CHO cells assessed as calcium mobilization at 3 uM after 60 mins by FLIPR assay. The format is functional, cell-based.
Muscarinic acetylcholine receptor M3 (Homo sapiens), sequence (P20309 whole entry, looked up): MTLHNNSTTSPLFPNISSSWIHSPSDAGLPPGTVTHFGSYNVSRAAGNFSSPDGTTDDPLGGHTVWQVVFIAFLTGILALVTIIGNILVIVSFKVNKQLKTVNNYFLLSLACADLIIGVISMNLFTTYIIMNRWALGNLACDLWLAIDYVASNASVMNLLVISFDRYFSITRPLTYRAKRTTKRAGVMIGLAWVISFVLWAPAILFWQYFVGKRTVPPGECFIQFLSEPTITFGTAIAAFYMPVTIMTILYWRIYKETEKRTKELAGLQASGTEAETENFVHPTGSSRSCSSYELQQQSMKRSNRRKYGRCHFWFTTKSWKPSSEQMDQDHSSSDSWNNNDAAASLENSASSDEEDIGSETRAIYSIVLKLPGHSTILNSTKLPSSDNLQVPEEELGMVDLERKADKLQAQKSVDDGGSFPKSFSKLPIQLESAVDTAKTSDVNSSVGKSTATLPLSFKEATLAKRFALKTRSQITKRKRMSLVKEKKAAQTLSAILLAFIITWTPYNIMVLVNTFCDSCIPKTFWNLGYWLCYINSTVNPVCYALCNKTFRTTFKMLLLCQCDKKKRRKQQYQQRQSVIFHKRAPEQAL
In data set [4] the test system is Mus musculus. Nature of the data set: Antipsychotic activity in ddY mouse assessed as reversal of apomorphine-induced climbing behaviour at 0.3 to 3 mg/kg, sc administered 20 mins prior to apomorphine injection measured for 20 mins from 10 mins after apomorphine challenge. The format is functional, organism-based.
Data set [5] has as its system Cynomolgus monkey. Put plainly: Induction of drowsiness in sc dosed cynomolgus monkey. It counts as organism-based, Macaca fascicularis. To be noted: in vivo.
The test system of data set [6] is Cynomolgus monkey. Put plainly: Induction of salivation in sc dosed cynomolgus monkey. It counts as organism-based, Macaca fascicularis. To be noted: in vivo.
Data set [7] deals with T1, Muscarinic acetylcholine receptor M5 (Homo sapiens). Put plainly: Partial agonist activity at human M5 receptor in CHO cells assessed as calcium mobilization at 30 uM after 60 mins by FLIPR assay. The format is functional, cell-based.
For data set [8], the system named is Mus musculus. Put plainly: Induction of seizures in ddY mouse at 100 mg/kg, sc measured for 45 mins after drug injection. It counts as organism-based. Also noted: dose 100 mg/kg, route subcutaneous. To be noted: in vivo, 0.75 h.

Activity calls are given as the source filed them. The rule behind the calls is not given here.

As to `CCOC(=O)N1[C@@H]2CC[C@H]1C[C@H](CN1CC[C@H](N3C(=O)Cc4ccccc43)C1)C2`, the Activity result was “Toxic” in the data set with Cynomolgus monkey [1]; 17% in data set [2]; 7% in data set [3]; “Non-toxic” in the data set on Cynomolgus monkey [5]; “Toxic” in the data set on Cynomolgus monkey [6]; “Non-toxic” in the data set on Mus musculus [8]. For the same compound, the inhibition entry in the data set with Mus musculus [4] was “Active”. Besides, the outcome in data set [7] was inactive.

The values are drawn from ChEMBL document CHEMBL2331215, “Discovery of novel N-substituted oxindoles as selective m1 and m4 muscarinic acetylcholine receptors partial agonists” (ACS Med Chem Lett, 2013).
